From US4468469A, “Substituted phenylacetic acids and salts as TBP blocking agents in iodothyronine immunoassays” (Miles Laboratories, Inc., priority 1982, dated 1984) come the findings set out here.

The test system of this test is antiserum to thyroxine / phosphodiesterase. Nature of the test: Enzyme substrate-labeled immunoassay for thyroxine. Type of test: biochemical. Particulars: 75 μl of 60 mM fenclofenac. How it is done: The following reagents were assembled:
Reagent A: 50 mM Bicine buffer with 0.1% sodium azide, pH 8.5
Reagent B: 60 mM fenclofenac in 0.5N sodium hydroxide
Reagent C: thyroxine standards with concentrations of 0, 2, 4, 6, 8, 10, 12, 16 and 20 μg/dl prepared by adding thyroxine (Sigma) to thyroxine free serum.
Reagent D: antibody/enzyme reagent containing 50 μl antiserum per ml and 0.12 units per ml of phosphodiesterase (Sigma, Type VII) in Bicine buffer.
Reagent E: 1.24 μM of the labeled conjugate (Part A above) in 5 mM formate, 0.1% sodium azide buffer, pH 3.5.
The assay protocol involved adding 75 μl of Reagent B and 0.5 ml of Reagent A to a cuvette, followed by 75 μl of an appropriate Reagent C and another 0.5 ml of Reagent A, and finally 75 μl of Reagent D and a third 0.5 ml of Reagent A. After a 1 hour incubation at room temperature, the assay reaction was started by adding 75 μl of Reagent E and 0.5 ml of Reagent A to the cuvette. The fluorescence (excitation=360 nm, emission=450 nm) was measured 20 minutes after addition of Reagent E.

The structures appear in SMILES notation.

In the case of `O=C(O)Cc1ccccc1Oc1ccc(Cl)cc1Cl` [Fenclofenac, 2-(2,4-dichlorophenoxy)phenylacetic acid], the fluorescence units reads like this: (thyroxine standard 0 μg/dl, excitation 360 nm, emission 450 nm) 24.9 fluorescence units; (thyroxine standard 2 μg/dl) 25.5 fluorescence units; (thyroxine standard 4 μg/dl) 26.4 fluorescence units; (thyroxine standard 6 μg/dl) 27.2 fluorescence units; (thyroxine standard 8 μg/dl) 26.7 fluorescence units; (thyroxine standard 10 μg/dl) 27.1 fluorescence units. The fluorescence units is given as 30.0 fluorescence units (thyroxine standard 12 μg/dl), 30.1 fluorescence units (thyroxine standard 16 μg/dl) and 30.8 fluorescence units (thyroxine standard 20 μg/dl).
